Assay in all cases: relative viability (nuclei count vs DMSO), 5 days (fraction); higher = more cells survive
Compound in the test “QS11 + Lapatinib”: C1CC2=C(C1)C=C(C=C2)OC3=NC(=C4C(=N3)N(C=N4)CC5=CC=C(C=C5)C6=CC=CC=C6)N[C@@H](CC7=CC=CC=C7)CO [QS11] + CS(=O)(=O)CCNCc1ccc(-c2ccc3ncnc(Nc4ccc(OCc5cccc(F)c5)c(Cl)c4)c3c2)o1 [Lapatinib] (partner 2 µM)
Put shortly: (§1)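 Relative viability is defined as nuclei in treated wells over nuclei in vehicle wells. Duplicate plates were run and medians reported. Lung cancer cell lines in 1536-well plates were dosed by pin tool one day after seeding, with one drug or with a fixed anchor-drug dose plus five library-drug doses (not always all listed) in √10 steps, and nuclei were counted after 5 days.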

Compound in the test “AZ628 + Pemetrexed”: CC1=C(C=C(C=C1)NC(=O)C2=CC(=CC=C2)C(C)(C)C#N)NC3=CC4=C(C=C3)N=CN(C4=O)C [AZ628] + Nc1nc2[nH]cc(CCc3ccc(C(=O)N[C@@H](CCC(=O)O)C(=O)O)cc3)c2c(=O)[nH]1 [Pemetrexed] (partner 0.2 µM)
The gist of the method:
as §1

Compound in test [1]: C[As](C)SC[C@H](NC(=O)CC[C@H](N)C(=O)O)C(=O)NCC(=O)O [Darinaparsin] + CC(C)C[C@H](NC(=O)[C@H](Cc1ccccc1)NC(=O)c1cnccn1)B(O)O [Bortezomib] (partner 0.002 µM)
Put shortly:
as §1

Compound in the test “Darinaparsin + Lapatinib”: C[As](C)SC[C@H](NC(=O)CC[C@H](N)C(=O)O)C(=O)NCC(=O)O [Darinaparsin] + CS(=O)(=O)CCNCc1ccc(-c2ccc3ncnc(Nc4ccc(OCc5cccc(F)c5)c(Cl)c4)c3c2)o1 [Lapatinib] (partner 2 µM)
The gist of the method: as §1

On to LCLC-97TM1, for which the relative viability with QS11 + Lapatinib (first compound 0.08 µM) worked out at 0.484; in the test with QS11 + Lapatinib (first compound 0.253 µM), 1.12; with QS11 + Lapatinib (first compound 0.8 µM), 0.96; in the test with QS11 + Lapatinib (first compound 2.53 µM), 1.24; with QS11 + Lapatinib (first compound 8 µM), 0.673; in the test with AZ628 + Pemetrexed (first compound 0.08 µM), 0.246. Also, the relative viability was 0.255 with AZ628 + Pemetrexed (first compound 0.253 µM); 0.238 in the test with AZ628 + Pemetrexed (first compound 0.8 µM); 0.229 with AZ628 + Pemetrexed (first compound 2.53 µM); 0.121 with AZ628 + Pemetrexed (first compound 8 µM); 0.765 in test [1] (first compound 0.08 µM); 0.513 in test [1] (first compound 0.8 µM). For the same cell line, the relative viability in test [1] (first compound 2.53 µM) worked out at 0.416; in test [1] (first compound 8 µM), 0.481; in the test with Darinaparsin + Lapatinib (first compound 0.08 µM), 0.782; with Darinaparsin + Lapatinib (first compound 0.8 µM), 0.579; with Darinaparsin + Lapatinib (first compound 2.53 µM), 0.803; with Darinaparsin + Lapatinib (first compound 8 µM), 0.867.

The values above are taken from the supplement of paper PMC10307832.
